Reference: US20100068150A1, “Selective Caspase Inhibitors” (The Board of Trustees of the Leland Stanford Junior …, priority 2006, published 2010)
Entries after “also recorded” stand apart in the source; their conditions may differ.

How the values were obtained:
[1] = tested on: endogenous caspases-3, 7, 9 and exogenous recombinant caspase-8 in 293 extracts; assay: Labeling in 293 extracts with exogenous recombinant caspase-8 and cytochrome c/dATP; assay type: binding
Experimental: (a.) Hypotonic 293 cytosolic extracts were induced to undergo intrinsic apoptosis by addition of cytochrome c/dATP. […] Samples were analyzed by SDS-PAGE followed by biotin blotting using streptavidin-HRP. (b) The identity of individual caspases was confirmed via immunoprecipitation using specific anti-sera for caspases-3, 7 and 9 (also see FIG. 5B for immunoprecipitation of caspases-3 and 7 after KMB01 labeling). Extracts (293) were activated with cytochrome c/dATP for 10 minutes, labeled by addition of indicated probes (100 nM final concentration for bAB06 and bAB13 and 10 μM final concentration for KMB01) and labeled caspases precipitated using specific anti-sera as described in the Methods section. I is input, P is pellet, S is supernatant after specific precipitation. […] Labeling of caspases was monitored by SDS-PAGE followed by biotin blotting with streptavidin-HRP. […]
Selective labeling of endogenous caspases in cell extracts and live cells with active site probes was carried out as follows: Hypotonic 293 cytosolic extracts were induced to undergo intrinsic apoptosis by addition of cytochrome c/dATP. […] Samples were analyzed by SDS-PAGE followed by biotin blotting using streptavidin-HRP. […] Labeling of caspases was monitored by SDS-PAGE followed by biotin blotting with streptavidin-HRP. […]
Protein concentration of hypotonic extracts was measured using a standard Bradford Protein Assay (BioRad). […]

[2] = molecular target: T1, caspase-9 in 293 extracts (Homo sapiens, UniProt P55211); assay: Intrinsic apoptosis assay in 293 extracts, KMB01 labeling of caspase-9; assay type: biochemical
T1 construct: endogenous in cells
Source text: To further confirm our assignment of the labeled species we treated samples at various activation times with purified recombinant Bir3 domain of XIAP. This polypeptide specifically binds to and inhibits caspase-9 but not caspase-3 or 7. […] We cannot rule out the possibility that p33 caspase-9 is the result of cleavage by some other protease or itself after it has already been labeled by KMB01 or inhibited by Bir3.
Profiling of caspase activity in 293 extracts that had been treated with AB06 at the same time as cytochrome c/dATP confirmed the selectivity of our inhibitor. […]
To confirm that our inhibitor AB06 was not reducing caspase 9 activity resulting in slow processing of caspase-7 and accumulation of a partially processed intermediate we treated extracts with a range of AB06 concentrations and monitored caspase-9 inhibition at various time points after cytochrome c/dATP addition. […]
Hypotonic 293 or MCF-7 extracts (4.7 μg/μl total protein concentration; 73 μg of total protein per time point) were activated by addition of cytochrome c (100 uM final) and dATP (1 mM final) for a range of times from 0-240 minutes as indicated. […] A portion (13.5 μg total protein) from each time point was analyzed by SDS-PAGE using 10-20% gradient gels followed by blotting for biotin as described above. […]

[3] = tested on: caspase-3, caspase-6, caspase-7, caspase-8, caspase-9; details: Kato et al., 2005; cited from earlier work
[4] = tested on: endogenous caspases in intact Jurkat cells; assay: Direct labeling of endogenous caspase activity in live Jurkat cells; assay type: cell-based; details: anti-Fas or etoposide 15 h, probe 2 h; KMB01, bAB19 10 μM; bAB06, bAB13 1 μM

T1 sequence (P55211 1-315 limits assumed): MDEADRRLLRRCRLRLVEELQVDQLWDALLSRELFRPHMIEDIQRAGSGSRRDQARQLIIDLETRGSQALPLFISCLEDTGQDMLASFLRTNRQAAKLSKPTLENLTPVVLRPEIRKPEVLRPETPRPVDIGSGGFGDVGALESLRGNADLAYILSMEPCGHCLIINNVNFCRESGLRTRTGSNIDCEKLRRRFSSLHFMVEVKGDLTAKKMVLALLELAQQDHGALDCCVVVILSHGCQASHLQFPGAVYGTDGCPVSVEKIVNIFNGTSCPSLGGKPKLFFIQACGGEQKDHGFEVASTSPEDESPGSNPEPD
T1 sequence (P55211 331-416 limits assumed): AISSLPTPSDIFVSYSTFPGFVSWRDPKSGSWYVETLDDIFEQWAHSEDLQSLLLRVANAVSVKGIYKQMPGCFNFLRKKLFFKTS
T1 sequence (O14727 whole entry partner): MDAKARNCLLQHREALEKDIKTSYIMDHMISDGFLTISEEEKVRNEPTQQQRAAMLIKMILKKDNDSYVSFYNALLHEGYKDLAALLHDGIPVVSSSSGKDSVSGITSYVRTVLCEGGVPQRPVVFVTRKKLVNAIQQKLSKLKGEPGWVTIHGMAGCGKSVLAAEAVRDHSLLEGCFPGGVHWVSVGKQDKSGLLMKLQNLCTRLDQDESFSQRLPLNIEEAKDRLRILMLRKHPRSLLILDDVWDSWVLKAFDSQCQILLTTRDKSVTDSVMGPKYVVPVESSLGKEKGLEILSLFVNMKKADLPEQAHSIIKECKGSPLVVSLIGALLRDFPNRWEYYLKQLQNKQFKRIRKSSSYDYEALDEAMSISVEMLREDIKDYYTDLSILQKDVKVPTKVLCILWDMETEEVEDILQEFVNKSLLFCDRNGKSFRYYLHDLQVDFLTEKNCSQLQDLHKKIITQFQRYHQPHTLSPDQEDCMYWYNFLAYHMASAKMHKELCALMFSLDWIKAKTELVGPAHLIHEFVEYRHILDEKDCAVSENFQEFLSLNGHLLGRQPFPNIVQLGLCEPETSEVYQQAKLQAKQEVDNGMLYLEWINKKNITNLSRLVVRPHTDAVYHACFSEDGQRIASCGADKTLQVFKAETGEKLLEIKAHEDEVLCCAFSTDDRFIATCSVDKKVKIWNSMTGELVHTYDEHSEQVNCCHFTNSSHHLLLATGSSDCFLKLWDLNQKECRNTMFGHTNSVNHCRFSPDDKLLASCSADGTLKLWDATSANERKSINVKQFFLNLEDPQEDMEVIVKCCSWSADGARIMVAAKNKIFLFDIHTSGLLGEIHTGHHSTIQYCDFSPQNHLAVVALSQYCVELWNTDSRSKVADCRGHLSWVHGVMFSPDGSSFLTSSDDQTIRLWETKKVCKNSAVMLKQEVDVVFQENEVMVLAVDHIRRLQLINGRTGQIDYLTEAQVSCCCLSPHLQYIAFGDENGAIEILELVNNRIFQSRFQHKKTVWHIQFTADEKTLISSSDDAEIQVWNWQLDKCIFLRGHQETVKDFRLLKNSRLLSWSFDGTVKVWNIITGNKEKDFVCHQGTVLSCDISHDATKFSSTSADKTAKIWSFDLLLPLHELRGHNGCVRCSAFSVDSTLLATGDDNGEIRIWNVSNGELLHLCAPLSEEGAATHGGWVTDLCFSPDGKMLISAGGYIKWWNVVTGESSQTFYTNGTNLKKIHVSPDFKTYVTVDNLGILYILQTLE
T1 sequence (P99999 2-105 partner limits assumed): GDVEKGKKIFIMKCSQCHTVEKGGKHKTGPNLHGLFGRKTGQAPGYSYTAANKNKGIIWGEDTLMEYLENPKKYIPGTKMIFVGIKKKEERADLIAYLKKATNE

Row | Compound | inhibition of caspases in 293 extracts with added caspase-8 ([1]; AB06 10 μM added in conjunction with cytochrome c/dATP) | KMB01 labeling of processed forms of caspase-9 and precursor forms of caspase-7 ([2]; AB06 added at the same time as cytochrome c/dATP) | cross reactivity with caspase-9 ([2]; range of AB06 concentrations, as high as 10 μM for up to 30 minutes) | labeling of caspases by probe [3] | labeling of endogenous caspases in intact cells [4] | labeling of caspases in 293 extracts with added caspase-8 ([1]; recombinant caspase-8 100 nM, cytochrome c/dATP, probes 10 μM, 30 min)
1 | Cc1cccc(C)c1C(=O)OCC(=O)[C@H](CC(=O)O)NC(=O)[C@@H](NC(=O)[C@H](Cc1ccncc1)NC(=O)[C@H](CC(=O)O)NC(=O)Cc1ccc(O)c([N+](=O)[O-])c1)C(C)C [AB06, Np-D-3-V-D-DMBA] | caspases-3 and 7 were selectively inhibited | unaltered | lack of cross reactivity |  |  | 
2 | Bio-EVD-AOMK [KMB01, reference compound] |  |  |  | robust labeling of caspase-9 as well as caspase-3, caspase-7 and caspase-8 | robust labeling of downstream caspases-3 and 7; also recorded: did not show labeling of caspase-9 | strong labeling of the endogenous caspases-3, 7, and 9 as well as the exogenously added caspase-8
